According to PMC10510382, “Discovery of a First-in-Class Degrader for the Lipid Kinase PIKfyve” (Journal of Medicinal Chemistry, 2023):

How the values were obtained:
[1] = biological target: T1, von Hippel–Lindau (VHL) (Homo sapiens, UniProt P40337); experiment: VHL-dependent degradation in VCaP cells: blocked by VL285; inactive hydroxy isomer […]dN does not degrade; format: cell-based
T1 construct: with PIKfyve

[2] = biological target: T2, PIKfyve (Homo sapiens, UniProt Q9Y2I7); experiment: PROTAC degradation by immunoblot in VCaP cells (DC50), blocked by warhead […] and VL285; TMT proteomics; format: cell-based
T2 construct: with VHL
T2 sequence (Q9Y2I7 2-2098): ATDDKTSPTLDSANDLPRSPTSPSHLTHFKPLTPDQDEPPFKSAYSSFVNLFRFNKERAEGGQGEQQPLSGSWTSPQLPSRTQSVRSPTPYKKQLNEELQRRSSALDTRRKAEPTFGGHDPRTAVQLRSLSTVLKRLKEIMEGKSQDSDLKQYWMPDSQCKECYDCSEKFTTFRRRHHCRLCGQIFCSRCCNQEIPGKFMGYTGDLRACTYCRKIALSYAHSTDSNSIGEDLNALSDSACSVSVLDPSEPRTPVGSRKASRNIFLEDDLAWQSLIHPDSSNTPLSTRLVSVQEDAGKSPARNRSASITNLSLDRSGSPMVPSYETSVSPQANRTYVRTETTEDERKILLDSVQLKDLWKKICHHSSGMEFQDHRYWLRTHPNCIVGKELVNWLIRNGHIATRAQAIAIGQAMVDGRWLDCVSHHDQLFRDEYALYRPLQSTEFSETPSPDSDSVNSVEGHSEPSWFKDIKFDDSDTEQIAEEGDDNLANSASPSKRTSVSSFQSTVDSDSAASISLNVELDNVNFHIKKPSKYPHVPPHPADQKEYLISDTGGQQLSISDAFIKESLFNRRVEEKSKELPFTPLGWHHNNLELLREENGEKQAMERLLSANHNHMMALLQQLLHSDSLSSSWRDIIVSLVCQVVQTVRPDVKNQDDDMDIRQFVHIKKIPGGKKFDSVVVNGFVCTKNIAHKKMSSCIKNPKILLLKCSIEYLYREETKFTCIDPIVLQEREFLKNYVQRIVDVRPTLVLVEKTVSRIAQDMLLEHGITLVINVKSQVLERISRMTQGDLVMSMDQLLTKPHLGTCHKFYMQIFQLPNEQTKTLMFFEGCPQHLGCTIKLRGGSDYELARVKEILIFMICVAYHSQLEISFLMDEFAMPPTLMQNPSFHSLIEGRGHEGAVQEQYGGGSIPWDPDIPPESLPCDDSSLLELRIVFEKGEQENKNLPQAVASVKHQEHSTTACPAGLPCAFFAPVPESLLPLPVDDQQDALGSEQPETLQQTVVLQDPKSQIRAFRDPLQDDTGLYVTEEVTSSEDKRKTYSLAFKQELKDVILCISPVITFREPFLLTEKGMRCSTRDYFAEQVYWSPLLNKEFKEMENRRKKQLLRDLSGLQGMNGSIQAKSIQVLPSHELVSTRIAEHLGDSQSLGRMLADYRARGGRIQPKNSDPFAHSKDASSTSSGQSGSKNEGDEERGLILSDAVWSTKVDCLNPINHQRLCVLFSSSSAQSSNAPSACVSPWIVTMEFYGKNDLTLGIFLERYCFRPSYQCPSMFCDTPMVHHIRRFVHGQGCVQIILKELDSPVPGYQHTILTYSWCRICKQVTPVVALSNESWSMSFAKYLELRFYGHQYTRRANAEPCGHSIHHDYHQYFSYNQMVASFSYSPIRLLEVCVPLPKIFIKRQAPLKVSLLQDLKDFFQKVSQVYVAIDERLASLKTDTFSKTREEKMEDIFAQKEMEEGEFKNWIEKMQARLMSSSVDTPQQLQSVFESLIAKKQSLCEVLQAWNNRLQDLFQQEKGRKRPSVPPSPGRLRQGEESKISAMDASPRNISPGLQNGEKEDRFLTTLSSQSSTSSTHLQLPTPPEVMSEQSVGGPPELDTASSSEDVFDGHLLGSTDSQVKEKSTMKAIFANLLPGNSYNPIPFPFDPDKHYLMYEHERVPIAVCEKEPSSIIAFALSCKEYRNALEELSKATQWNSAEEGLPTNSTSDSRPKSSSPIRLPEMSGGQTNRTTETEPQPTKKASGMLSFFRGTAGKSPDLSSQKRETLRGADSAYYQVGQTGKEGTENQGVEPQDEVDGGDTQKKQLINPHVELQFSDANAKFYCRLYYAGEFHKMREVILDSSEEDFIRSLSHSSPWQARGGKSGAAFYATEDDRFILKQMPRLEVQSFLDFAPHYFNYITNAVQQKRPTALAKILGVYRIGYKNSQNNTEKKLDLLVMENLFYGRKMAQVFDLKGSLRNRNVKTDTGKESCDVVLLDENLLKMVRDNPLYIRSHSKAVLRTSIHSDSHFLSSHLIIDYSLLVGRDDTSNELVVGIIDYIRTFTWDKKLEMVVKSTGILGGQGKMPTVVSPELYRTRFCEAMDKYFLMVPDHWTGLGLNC

T1 sequence (P40337 whole entry): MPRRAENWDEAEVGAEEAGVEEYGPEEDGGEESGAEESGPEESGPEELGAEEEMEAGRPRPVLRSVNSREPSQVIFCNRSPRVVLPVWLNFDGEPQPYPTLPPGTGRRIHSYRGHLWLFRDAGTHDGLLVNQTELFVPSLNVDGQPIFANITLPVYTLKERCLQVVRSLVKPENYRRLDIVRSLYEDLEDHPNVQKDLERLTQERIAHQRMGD
T1 sequence (Q9Y2I7 2-2098 partner): as the sequence (Q9Y2I7 2-2098) above

Cc1cccc(/C=N/Nc2cc(N3CCOCC3)nc(OCCc3ccc(NC(=O)CCCCC(=O)N[C@H](C(=O)N4C[C@H](O)C[C@H]4C(=O)NCc4ccc(-c5scnc5C)cc4)C(C)(C)C)cc3)n2)c1 [12d, N^1-((S)-1-((2S,4R)-4-Hydroxy-2-((4-(4-methylthiazol-5-yl)benzyl)carbamoyl)pyrrolidin-1-yl)-3,3-dimethyl-1-oxobutan-2-yl)-N^6-(4-(2-((4-(2-((E)-3-methylbenzylidene)hydrazineyl)-6-morpholinopyrimidin-2-yl)oxy)ethyl)phenyl)adipamide]
VHL-dependent degradation in VCaP cells: blocked by VL285; inactive hydroxy isom [1]: PIK5-12d induced PIKfyve degradation in a VHL- and proteasome-dependent manner | DC50 [2]: 1.48 nM
